Measurements published in US20150197492A1, “NOVEL INDENO[1,2-c]QUINOLIN-11-ONE DERIVATIVES, PREPARATION METHOD AND APPLICATION THEREOF” (National Defense Medical Center, priority 2014, published 2015).

Assays:
Experiment in all cases: cells
Assay type in all cases: cell-based
SR = SR (Leukemia), 10 μM, 48 hours
MDA-MB-435 = MDA-MB-435 (Melanoma), 10 μM, 48 hours
HCT-116 = HCT-116 (Colon Cancer), 10 μM, 48 hours
HL-60 (TB) = HL-60 (TB) (Leukemia), 10 μM, 48 hours
MOLT-4 = MOLT-4 (Leukemia), 10 μM, 48 hours
SNB-75 = SNB-75 (CNS Cancer), 10 μM, 48 hours
IGROV1 = IGROV1 (Ovarian Cancer), 10 μM, 48 hours
A498 = A498 (Renal Cancer), 10 μM, 48 hours
OVCAR-4 = OVCAR-4 (Ovarian Cancer), 10 μM, 48 hours
RPMI-8226 = RPMI-8226 (Leukemia), 10 μM, 48 hours
BT-549 = BT-549 (Breast Cancer), 10 μM, 48 hours
HT29 = HT29 (Colon Cancer), 10 μM, 48 hours
PC-3 = PC-3 (Prostate Cancer), 10 μM, 48 hours
SW-620 = SW-620 (Colon Cancer), 10 μM, 48 hours
UACC-62 = UACC-62 (Melanoma), 10 μM, 48 hours
MDA-MB-231/ATCC = MDA-MB-231/ATCC (Breast Cancer), 10 μM, 48 hours
OVCAR-3 = OVCAR-3 (Ovarian Cancer), 10 μM, 48 hours
A549/ATCC = A549/ATCC (Non-Small Cell Lung Cancer), 10 μM, 48 hours
MDA-MB-468 = MDA-MB-468 (Breast Cancer), 10 μM, 48 hours
HS 578T = HS 578T (Breast Cancer), 10 μM, 48 hours
NCI-H322M = NCI-H322M (Non-Small Cell Lung Cancer), 10 μM, 48 hours
SF-268 = SF-268 (CNS Cancer), 10 μM, 48 hours
NCI-H23 = NCI-H23 (Non-Small Cell Lung Cancer), 10 μM, 48 hours
COLO 205 = COLO 205 (Colon Cancer), 10 μM, 48 hours
SK-OV-3 = SK-OV-3 (Ovarian Cancer), 10 μM, 48 hours
K-562 = K-562 (Leukemia), 10 μM, 48 hours
TK-10 = TK-10 (Renal Cancer), 10 μM, 48 hours
SK-MEL-28 = SK-MEL-28 (Melanoma), 10 μM, 48 hours
NCI-H460 = NCI-H460 (Non-Small Cell Lung Cancer), 10 μM, 48 hours
HCC-2998 = HCC-2998 (Colon Cancer), 10 μM, 48 hours

For `CC1CCN(c2nc3ccccc3c3c2-c2ccc(Cl)cc2C3=O)CC1` [SJ-6, 9-Chloro-6-(4-methylpiperidin-1-yl)-11H-indeno[1,2-c]quinolin-11-one], the growth percentage (SR) was 98.51%, the growth percentage (MDA-MB-435) was 104.53% and the growth percentage (HCT-116) was 102.51%. The growth percentage (HL-60 (TB)) was 98.84%, the growth percentage (MOLT-4) was 94.41% and the growth percentage (SNB-75) was 84.42%. For the same molecule, the growth percentage (IGROV1) was 94.36%, the growth percentage (A498) was 87.55% and the growth percentage (OVCAR-4) was 97.11%. The growth percentage (RPMI-8226) was 97.99%, the growth percentage (BT-549) was 95.52% and the growth percentage (HT29) was 104.84%. It also gave a growth percentage (PC-3) of 90.64%, a growth percentage (SW-620) of 88.89% and a growth percentage (UACC-62) of 93.36%. The growth percentage (MDA-MB-231/ATCC) was 90.96%, the growth percentage (OVCAR-3) was 97.59% and the growth percentage (A549/ATCC) was 101.69%. It also gave a growth percentage (MDA-MB-468) of 97.12%, a growth percentage (HS 578T) of 98.38% and a growth percentage (NCI-H322M) of 107.08%. It also gave a growth percentage (SF-268) of 96.49%, a growth percentage (NCI-H23) of 90.42% and a growth percentage (COLO 205) of 104.79%. For the same molecule, the growth percentage (SK-OV-3) was 99.78%, the growth percentage (K-562) was 103.57% and the growth percentage (TK-10) was 134.79%. The growth percentage (SK-MEL-28) was 105.21%, the growth percentage (NCI-H460) was 101.21% and the growth percentage (HCC-2998) was 102.76%.
`O=C1c2cc(Cl)ccc2-c2c(N3CCN(C4CCCC4)CC3)nc3ccccc3c21` [SJ-14, 9-Chloro-6-(4-cyclopentylpiperazin-1-yl)-11H-indeno[1,2-c]quinolin-11-one] showed a growth percentage (SR) of 97.09%, a growth percentage (MDA-MB-435) of 99.93% and a growth percentage (HCT-116) of 91.34%. For the same molecule, the growth percentage (HL-60 (TB)) was 103.04%, the growth percentage (MOLT-4) was 98.39% and the growth percentage (SNB-75) was 86.36%. It also gave a growth percentage (IGROV1) of 85.84%, a growth percentage (A498) of 88.64% and a growth percentage (OVCAR-4) of 94.20%. For the same molecule, the growth percentage (RPMI-8226) was 94.89%, the growth percentage (BT-549) was 102.74% and the growth percentage (HT29) was 93.22%. It also gave a growth percentage (PC-3) of 86.19%, a growth percentage (SW-620) of 93.06% and a growth percentage (UACC-62) of 95.06%. For the same molecule, the growth percentage (MDA-MB-231/ATCC) was 82.96%, the growth percentage (OVCAR-3) was 99.54% and the growth percentage (A549/ATCC) was 101.56%. For the same molecule, the growth percentage (MDA-MB-468) was 103.99%, the growth percentage (HS 578T) was 99.40% and the growth percentage (NCI-H322M) was 98.50%. For the same molecule, the growth percentage (SF-268) was 96.39%, the growth percentage (NCI-H23) was 92.80% and the growth percentage (COLO 205) was 104.54%. It also gave a growth percentage (SK-OV-3) of 96.85%, a growth percentage (K-562) of 99.26% and a growth percentage (SK-MEL-28) of 107.58%. The growth percentage (NCI-H460) was 101.46% and the growth percentage (HCC-2998) was 106.04%.
`O=C1c2cc(Cl)ccc2-c2c(N3CCN(c4ccccc4)CC3)nc3ccccc3c21` [SJ-16, 9-Chloro-6-(4-phenylpiperazin-1-yl)-11H-indeno[1,2-c]quinolin-11-one] gave a growth percentage (SR) of 95.93%, a growth percentage (MDA-MB-435) of 99.55% and a growth percentage (HCT-116) of 78.18%. For the same molecule, the growth percentage (HL-60 (TB)) was 105.45%, the growth percentage (MOLT-4) was 98.13% and the growth percentage (SNB-75) was 33.20%. For the same molecule, the growth percentage (IGROV1) was 65.13%, the growth percentage (A498) was 97.48% and the growth percentage (OVCAR-4) was 90.32%. The growth percentage (RPMI-8226) was 95.33%, the growth percentage (BT-549) was 89.83% and the growth percentage (HT29) was 82.40%. The growth percentage (PC-3) was 79.79%, the growth percentage (SW-620) was 93.14% and the growth percentage (UACC-62) was 87.17%. It also gave a growth percentage (MDA-MB-231/ATCC) of 73.80%, a growth percentage (OVCAR-3) of 98.07% and a growth percentage (A549/ATCC) of 90.89%. The growth percentage (MDA-MB-468) was 95.37%, the growth percentage (NCI-H322M) was 98.63% and the growth percentage (SF-268) was 85.45%. It also gave a growth percentage (NCI-H23) of 83.34%, a growth percentage (COLO 205) of 102.19% and a growth percentage (SK-OV-3) of 78.58%. The growth percentage (K-562) was 95.17%, the growth percentage (TK-10) was 115.61% and the growth percentage (SK-MEL-28) was 104.82%. For the same molecule, the growth percentage (NCI-H460) was 97.04% and the growth percentage (HCC-2998) was 106.23%.
`COc1cccc(N2CCN(c3nc4ccccc4c4c3-c3ccc(Cl)cc3C4=O)CC2)c1` [SJ-20, 9-Chloro-6-(4-(3-methoxyphenyl)piperazin-1-yl)-11H-indeno[1,2-c]quinolin-11-one] was tested, and the growth percentage (SR) was 95.05%, the growth percentage (MDA-MB-435) was 100.75% and the growth percentage (HCT-116) was 93.02%. For the same molecule, the growth percentage (HL-60 (TB)) was 99.09%, the growth percentage (MOLT-4) was 95.46% and the growth percentage (SNB-75) was 37.76%. It also gave a growth percentage (IGROV1) of 80.87%, a growth percentage (A498) of 104.53% and a growth percentage (OVCAR-4) of 87.08%. The growth percentage (RPMI-8226) was 93.63%, the growth percentage (BT-549) was 101.57% and the growth percentage (HT29) was 95.93%. It also gave a growth percentage (PC-3) of 72.83%, a growth percentage (SW-620) of 91.16% and a growth percentage (UACC-62) of 86.44%. It also gave a growth percentage (MDA-MB-231/ATCC) of 79.81%, a growth percentage (OVCAR-3) of 104.27% and a growth percentage (A549/ATCC) of 101.22%. For the same molecule, the growth percentage (MDA-MB-468) was 101.04%, the growth percentage (HS 578T) was 71.75% and the growth percentage (NCI-H322M) was 91.93%. It also gave a growth percentage (SF-268) of 83.89%, a growth percentage (NCI-H23) of 87.22% and a growth percentage (COLO 205) of 106.63%. The growth percentage (SK-OV-3) was 86.02%, the growth percentage (K-562) was 94.25% and the growth percentage (TK-10) was 133.34%. It also gave a growth percentage (SK-MEL-28) of 103.93%, a growth percentage (NCI-H460) of 101.76% and a growth percentage (HCC-2998) of 105.79%.
